The source of these data is patent US9828366B2, “Bicyclic derivatives and pharmaceutical composition including the same” (HANMI PHARM. CO., LTD., priority 2014, dated 2017).

The subject of one assay is C57BL/6 male mice. The assay is described as follows: Urinary glucose excretion test (UGE test). The class given is in vivo. Conditions: 3 mg/kg oral (Examples 13 to 38), 2 g/kg glucose after 30 minutes, urine collected for 24 hours. The procedure:
The pharmaceutical efficacies of the compounds prepared in the Examples were investigated by a urinary glucose excretion test using C57BL/6 male mice (8-week-old, prepared and supplied from Orient Chemical Co. Ltd.).
Two mice were used in each group. The mice were fasted for 16 hours, and the compound of each of the Examples [10 mg/kg of the compound of Examples 1 to 12; and 3 mg/kg of the compound of Examples 13 to 38] was dissolved in a vehicle [a mixed solution of 5% 1-methyl-2-pyrrolidinone, 20% PEG, and 75% 20 mM sodium diphosphate], and orally administered to the mice. After 30 minutes, 2 g/kg of glucose was orally administered to the mice in all the groups. Thereafter, the mice were immediately put into a metabolic cage, and urine was collected for 24 hours. The mice were freely fed an hour after the administration of glucose.
The results obtained from the test, that is, the results obtained by measuring urinary glucose excretion in the C57BL/6 male mice according to the compounds of the Examples, are listed in Table 5.

The next assay addresses T1, hSGLT1 (Homo sapiens, UniProt P13866).
T1 construct: FLAG; expressed in transfected cells
T1 sequence (P13866 1-664): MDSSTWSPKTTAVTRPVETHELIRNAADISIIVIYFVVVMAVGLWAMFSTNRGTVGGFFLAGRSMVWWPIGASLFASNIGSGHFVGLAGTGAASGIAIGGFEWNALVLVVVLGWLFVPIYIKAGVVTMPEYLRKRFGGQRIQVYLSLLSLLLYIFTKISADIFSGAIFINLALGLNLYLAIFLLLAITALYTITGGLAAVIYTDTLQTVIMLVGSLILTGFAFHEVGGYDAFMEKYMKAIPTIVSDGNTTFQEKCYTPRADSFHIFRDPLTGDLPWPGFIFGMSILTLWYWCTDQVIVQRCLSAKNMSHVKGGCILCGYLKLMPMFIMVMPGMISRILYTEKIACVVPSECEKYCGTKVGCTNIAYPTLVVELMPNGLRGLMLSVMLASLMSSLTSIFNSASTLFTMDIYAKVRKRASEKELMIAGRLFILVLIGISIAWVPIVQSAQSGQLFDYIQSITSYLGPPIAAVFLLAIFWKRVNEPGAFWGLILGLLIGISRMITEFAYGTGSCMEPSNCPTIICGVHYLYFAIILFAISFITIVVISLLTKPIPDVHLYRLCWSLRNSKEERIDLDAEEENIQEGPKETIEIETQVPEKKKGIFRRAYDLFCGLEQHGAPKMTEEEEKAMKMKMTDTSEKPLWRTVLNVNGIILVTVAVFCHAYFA
Description: [14C]-AMG uptake assay in HEK293-hSGLT1 cells. The class given is cell-based. The following applies: HEK293-hSGLT1 stable cell line. The procedure: (§1) For the evaluation of the pharmaceutical efficacies of the compounds as a SGLT inhibitor, a glucose uptake assay was conducted by using stable cell lines, i.e., HEK293-hSGLT1 and HEK293-hSGLT2. The stable cell lines were prepared by transfection of human embryonic kidney 293 (HEK293) cell line with pcDNA3.1(+)-FLAG-hSGLT1 and pcDNA3.1(+)-FLAG-hSGLT2 vectors.
(§2) The cells were seeded in a 96-well poly-D-lysine (PDL) coated plate at a density of 2.5×10^4 cells/well and cultured in a cell culture incubator for one day at 37° C., 5% CO2. Then, the cells were washed once with 1× assay buffer (140 mM NaCl, 5 mM KCl, 2.5 mM CaCl2, 1 mM MgSO4.7H2O, 1 mM KH2PO4, 10 mM HEPES) and pre-incubated in a cell culture incubator for 30 minutes with 1× assay buffer at 37° C., 5% CO2. Each compound obtained in the Examples was 10-fold diluted with 1× assay buffer. The diluted compounds were added to the plate at various concentrations and then cultured in a cell culture incubator for 1 hour at 37° C., 5% CO2.
(§3) Radioactive [^14C]-alpha-methyl-D-glucopyranoside (Cat# NEC659250UC, Perkin Elmer) was diluted with 1× assay buffer at a concentration of 0.2 μCi. The diluted [^14C]-AMG was added to all the wells in plate in the same amount, and the cells were cultured in a cell culture incubator for 2 hours at 37° C., 5% CO2. The cells were washed three times with cold Dulbecco's Phosphate buffer saline (DPBS) and then lysed with 0.2 N NaOH for 10 minutes at room temperature with shaking. After addition of MicroScint 20 fluid, the cells were allowed to shake for 15 minutes at room temperature, and then the activity of [^14C]AMG was quantified on a β-scintillation counter. IC50 of each of the compounds was determined by GraphPad Prism 4.0 software.

The target in a further assay is T2, hSGLT2 (Homo sapiens, UniProt P31639).
T2 construct: FLAG; expressed in transfected cells
T2 sequence (P31639 1-672): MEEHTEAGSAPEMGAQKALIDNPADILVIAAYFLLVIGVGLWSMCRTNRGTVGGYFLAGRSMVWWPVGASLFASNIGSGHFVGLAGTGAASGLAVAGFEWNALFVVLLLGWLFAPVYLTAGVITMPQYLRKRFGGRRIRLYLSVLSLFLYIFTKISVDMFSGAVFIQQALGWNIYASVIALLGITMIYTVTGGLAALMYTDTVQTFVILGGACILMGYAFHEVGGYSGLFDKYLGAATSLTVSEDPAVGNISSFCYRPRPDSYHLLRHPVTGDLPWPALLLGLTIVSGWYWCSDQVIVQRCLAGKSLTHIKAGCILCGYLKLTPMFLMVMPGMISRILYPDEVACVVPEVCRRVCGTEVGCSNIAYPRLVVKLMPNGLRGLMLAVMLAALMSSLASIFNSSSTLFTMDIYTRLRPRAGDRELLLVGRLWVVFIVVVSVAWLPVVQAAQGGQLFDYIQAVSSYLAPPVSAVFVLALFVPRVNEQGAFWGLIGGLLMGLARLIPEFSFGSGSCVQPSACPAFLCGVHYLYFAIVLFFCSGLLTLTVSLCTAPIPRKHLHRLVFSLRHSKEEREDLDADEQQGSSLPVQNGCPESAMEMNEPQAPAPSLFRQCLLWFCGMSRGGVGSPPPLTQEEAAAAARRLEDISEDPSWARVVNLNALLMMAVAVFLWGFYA
The assay is described as follows: [14C]-AMG uptake assay in HEK293-hSGLT2 cells. The class given is cell-based. Conditions: HEK293-hSGLT2 stable cell line. The procedure: as §1, §2, §3

For `OC[C@H]1O[C@@H](c2cc3c(c(Cc4cc5ccccc5s4)c2)CCC3)[C@H](O)[C@@H](O)[C@@H]1O` [Example 37, (2S,3R,4R,5S,6R)-2-(7-(benzo[b]thiophen-2-ylmethyl)-2,3-dihydro-1H-inden-5-yl)-6-(hydroxymethyl)tetrahydro-2H-pyran-3,4,5-triol], in the assay with C57BL/6 male mice, the UGE stood at 14.5 mg/20 g/24 hr. The IC50 was 19.8 nM on hSGLT1 and 9 nM against hSGLT2.
With `OC[C@H]1O[C@@H](c2cc3c(c(Cc4ccc(C(F)(F)F)cc4)c2)CCC3)[C@H](O)[C@@H](O)[C@@H]1O` [Example 24, (2R,3S,4R,5R,6S)-2-(hydroxymethyl)-6-(7-(4-(trifluoromethyl)benzyl)-2,3-dihydro-1H-inden-5-yl)tetrahydro-2H-pyran-3,4,5-triol], the half-maximal inhibitory concentration (IC50) against hSGLT1 was 267 nM; against hSGLT2, 6.8 nM.
`CC(C)(C)c1ccc(Cc2cc([C@@H]3O[C@H](CO)[C@@H](O)[C@H](O)[C@H]3O)cc3c2CCC3)cc1` [Example 31, (2S,3R,4R,5S,6R)-2-(7-(4-(tert-butyl)benzyl)-2,3-dihydro-1H-inden-5-yl)-6-(hydroxymethyl)tetrahydro-2H-pyran-3,4,5-triol]: the concentration for half-maximal inhibition (IC50) at hSGLT1 was determined as 178 nM; against hSGLT2, 5.8 nM.
`Cc1ccc(Cc2cc([C@@H]3O[C@H](CO)[C@@H](O)[C@H](O)[C@H]3O)cc3c2CCC3)cc1` [Example 15, (2R,3S,4R,5R,6S)-2-(hydroxymethyl)-6-(7-(4-methylbenzyl)-2,3-dihydro-1H-inden-5-yl)tetrahydro-2H-pyran-3,4,5-triol] yielded a UGE in the assay with C57BL/6 male mice of 8.1 mg/20 g/24 hr. Also, the concentration for half-maximal inhibition (IC50) at hSGLT1 came to 7.7 nM; against hSGLT2, 9.6 nM.
`OC[C@H]1O[C@@H](c2cc3c(c(Cc4ccc(C5CC5)cc4)c2)CCC3)[C@H](O)[C@@H](O)[C@@H]1O` [Example 38, (2S,3R,4R,5S,6R)-2-(7-(4-cyclopropylbenzyl)-2,3-dihydro-1H-inden-5-yl)-6-(hydroxymethyl)tetrahydro-2H-pyran-3,4,5-triol] yielded a UGE in the assay with C57BL/6 male mice of 14.8 mg/20 g/24 hr. The half-inhibitory concentration (IC50) against hSGLT1 was 24.9 nM; at hSGLT2 it was 5.8 nM.
Consider `Cc1ccc(Cc2cc([C@@H]3O[C@H](CO)[C@@H](O)[C@H](O)[C@H]3O)cc3c2CCC3)cc1C` [Example 32, (2S,3R,4R,5S,6R)-2-(7-(3,4-dimethylbenzyl)-2,3-dihydro-1H-inden-5-yl)-6-(hydroxymethyl)tetrahydro-2H-pyran-3,4,5-triol], for which the IC50 stood at 63.2 nM on hSGLT1 and 4.5 nM on hSGLT2.
In the case of `COc1ccc(Cc2cc([C@@H]3O[C@H](CO)[C@@H](O)[C@H](O)[C@H]3O)cc3c2CCC3)cc1` [Example 14, (2R,3S,4R,5R,6S)-2-(hydroxymethyl)-6-(7-(4-methoxybenzyl)-2,3-dihydro-1H-inden-5-yl)tetrahydro-2H-pyran-3,4,5-triol], the half-maximal inhibitory concentration (IC50) at hSGLT1 was 31.9 nM; against hSGLT2, 4 nM.
Molecule `OC[C@H]1O[C@@H](c2cc3c(c(Cc4ccc(OC(F)(F)F)cc4)c2)CCC3)[C@H](O)[C@@H](O)[C@@H]1O` [Example 22, (2R,3S,4R,5R,6S)-2-(hydroxymethyl)-6-(7-(4-(trifluoromethoxy)benzyl)-2,3-dihydro-1H-inden-5-yl)tetrahydro-2H-pyran-3,4,5-triol] had a UGE in the assay on C57BL/6 male mice of 9.6 mg/20 g/24 hr. Besides, the 50% inhibitory concentration (IC50) at hSGLT1 was 511 nM; at hSGLT2 it was 9.2 nM.
For `OC[C@H]1O[C@@H](c2cc3c(c(Cc4ccc5c(c4)OCO5)c2)CCC3)[C@H](O)[C@@H](O)[C@@H]1O` [Example 29, (2S,3R,4R,5S,6R)-2-(7-(benzo[d][1,3]dioxol-5-ylmethyl)-2,3-dihydro-1H-inden-5-yl)-6-(hydroxymethyl)tetrahydro-2H-pyran-3,4,5-triol], the 50% inhibitory concentration (IC50) on hSGLT1 is 35.2 nM; against hSGLT2, 3.5 nM.
In the case of `OC[C@H]1O[C@@H](c2cc3c(c(Cc4ccc(-c5ccc(F)cc5)s4)c2)CCC3)[C@H](O)[C@@H](O)[C@@H]1O` [Example 36, (2S,3R,4R,5S,6R)-2-(7-((5-(4-fluorophenyl)thiophen-2-yl)methyl)-2,3-dihydro-1H-inden-5-yl)-6-(hydroxymethyl)tetrahydro-2H-pyran-3,4,5-triol], the half-inhibitory concentration (IC50) against hSGLT1 was determined as 84.9 nM; against hSGLT2, 9 nM.
For the molecule `CCc1ccc(Cc2cc([C@@H]3O[C@H](CO)[C@@H](O)[C@H](O)[C@H]3O)cc3c2CCC3)cc1` [Example 16, (2S,3R,4R,5S,6R)-2-(7-(4-ethylbenzyl)-2,3-dihydro-1H-inden-5-yl)-6-(hydroxymethyl)tetrahydro-2H-pyran-3,4,5-triol], the UGE with C57BL/6 male mice came to 16.4 mg/20 g/24 hr. For the same molecule, the values for the IC50 against hSGLT1 and against hSGLT2 were 54.6 nM and 5.6 nM, respectively.
Regarding `OC[C@H]1O[C@@H](c2cc3c(c(Cc4ccc5c(c4)OCCO5)c2)CCC3)[C@H](O)[C@@H](O)[C@@H]1O` [Example 30, (2S,3R,4R,5S,6R)-2-(7-((2,3-dihydrobenzo[1,4]dioxin-6-yl)methyl)-2,3-dihydro-1H-inden-5-yl)-6-(hydroxymethyl)tetrahydro-2H-pyran-3,4,5-triol], in the assay with C57BL/6 male mice, the UGE was 7.2 mg/20 g/24 hr. Further, the half-inhibitory concentration (IC50) on hSGLT1 worked out at 55.2 nM; on hSGLT2, 3.5 nM.
Consider `OC[C@H]1O[C@@H](c2cc3c(c(Cc4ccc(OCC(F)(F)F)cc4)c2)CCC3)[C@H](O)[C@@H](O)[C@@H]1O` [Example 34, (2R,3S,4R,5R,6S)-2-(hydroxymethyl)-6-(7-(4-(2,2,2-trifluoroethoxy)benzyl)-2,3-dihydro-1H-inden-5-yl)tetrahydro-2H-pyran-3,4,5-triol], for which the half-maximal inhibitory concentration (IC50) amounted to 553 nM at hSGLT1 and 13.5 nM against hSGLT2.
For the molecule `OC[C@H]1O[C@@H](c2cc3c(c(Cc4ccc(Cl)cc4)c2)CCC3)[C@H](O)[C@@H](O)[C@@H]1O` [Example 40, (2S,3R,4R,5S,6R)-2-(7-(4-chlorobenzyl)-2,3-dihydro-1H-inden-5-yl)-6-(hydroxymethyl)tetrahydro-2H-pyran-3,4,5-triol], the results for the IC50 on hSGLT1 and at hSGLT2 were 210 nM and 28.8 nM, respectively.

The term IC50 denotes the point on the concentration scale where inhibition reaches its midpoint.
